Experimental data as given in patent publication EP3069725A1, “GLORIOSA SUPERBA L. EXTRACTS, COMPOSITIONS AND USE THEREOF” (priority 2015, dated 2016).

Columns and labels:
cancer cells [1] = details: literature comparison with colchicine; cited from earlier work
cancer cells [2] = details: literature; cited from earlier work
PANC02 cells = experiment: In vivo efficacy study, subcutaneous PANC02 tumour model; parameters: species or system C57BL/6 mice; details: 60 mg/kg BW gemcitabine IP, 3 times/week
Experimental: Cultures of PANC02 cells were harvested using a 0.05% trypsin solution, washed twice in sterile PBS and resuspended in sterile PBS at a concentration of 30 x 10^6 cells per mL. The viable cells were counted by using the Muse® Cell Analyzer. The mice (n = 56) were inoculated with 100 µL of the cell suspension in the right hind limb. Each mouse was randomly assigned to one of 8 groups (n = 6-8 mice per group) receiving a different treatment (Table 2). Tumour growth of the subcutaneous model was evaluated with calliper measurements from the moment the tumours became palpable and this three times a week before treatment and daily during treatment. The tumour volume was calculated by means of formula V = 0.5 x ab^2, with a and b being the long and short axes of the tumour, respectively. Table 2 - Group treatment assignment
Treatment was administered during 10 days, starting 19 days after tumour inoculation when tumours had reached a volume of approximately 300-400 mm^3. The first day of treatment was assigned "day 1". […] For both extracts the total amount of colchicine and its derivatives (calculated as colchicine) was the same, but the amount of colchicine itself in the extracts was different. […] To evaluate the effect of the treatment, tumour volume was measured daily during treatment and the mice were sacrificed on day 11.
Results were expressed as mean values of parameters ± standard error (SE). […]

Structure (SMILES): COc1cc2c(c(OC)c1O)-c1ccc(OC)c(=O)cc1[C@@H](NC(C)=O)CC2 [2-O-demethylcolchicine]
- in vivo potency (cancer cells [1]): 13.8 µmol/kg

Structure (SMILES): COc1cc2c(c(OC)c1OC)-c1ccc(OC)c(=O)cc1[C@@H](NC(C)=O)CC2 [COL, colchicine]
- in vivo potency (cancer cells [1]): 0.4 µmol/kg

Structure (SMILES): COc1c(O[C@@H]2O[C@H](CO)[C@@H](O)[C@H](O)[C@H]2O)cc2c(c1OC)-c1ccc(OC)c(=O)cc1[C@@H](NC(C)=O)CC2 [Colchicoside]
- activity in vitro (cancer cells [2]): not active

Structure (SMILES): Nc1ccn([C@@H]2O[C@H](CO)[C@@H](O)C2(F)F)c(=O)n1 [Gemcitabine, gemcitabine]
- % TGI (7 days) (PANC02 cells; day 7): 90%
- % TGI (10 days) (PANC02 cells; day 10): 99%
